According to US11723890B2, “Methods of treatment using an mTORC1 modulator” (Navitor Pharmaceuticals, Inc., priority 2019, dated 2023):

Tested on: subjects with TRD
Test: Example 1 Part B: preliminary efficacy on depression rating scales in subjects with TRD
Assay type: in vivo, human
Details: for Effect size, HAM-D6 for ≤55 years old / Effect size, HAM-D6 for ≥36 MADRS at baseline / Effect size, CGI-S for ≤55 years old / Effect size, MADRS Total for ≤55 years old / Effect size, CGI-S for ≥36 MADRS at baseline / Effect size, MADRS Total for ≥36 MADRS at baseline / Effect size, IDS-SR Psychomotor Domain / Effect size, MADRS-06 (core) / Effect size, MADRS-08 (core-plus): post-hoc; for Effect size, HAM-D6 for ≤55 years old / Effect size, CGI-S for ≤55 years old / Effect size, MADRS Total for ≤55 years old: N = 14; for Effect size, HAM-D6 for ≥36 MADRS at baseline / Effect size, CGI-S for ≥36 MADRS at baseline / Effect size, MADRS Total for ≥36 MADRS at baseline: N = 16
Description: Primary Efficacy Endpoint: The primary efficacy endpoint was the difference between the compound A group and the placebo group in change from baseline in the Montgomery Asberg Depression Rating Scale (MADRS) total score at Day 2 (24 hours post dose).
Secondary Efficacy Endpoints: Secondary preliminary efficacy endpoints were the difference between the compound A group and the placebo group in: • change from baseline in the MADRS total score at each time point • change from baseline in the Hamilton Depression Rating Scale-6 Item (HAM-D6) total score at each time point • change from baseline in the IDS-SR30 total score and domain scores at each time point • change from baseline in the Clinical Global Impression-Severity (CGI-S) score at each time point
Preliminary Efficacy Evaluations: Other psychiatric evaluations were performed to assess preliminary efficacy in Part B only. These evaluations included the Montgomery-Asberg Depression Rating Scale (MADRS), the Hamilton Depression Rating Scale-6 Item (HAM-D6), the Clinical Global Impression-Severity (CGI-S), and the Inventory of Depressive Symptomatology (30-item, self-rated version) (IDS-SRN). Montgomery-Asberg Depression Rating Scale (MADRS).
The MADRS is a clinician-administered scale used to assess the range of symptoms that are most frequently observed in patients with major depression. The scale includes 10 items, each scored on a scale of 0 to 6. The MADRS was administered centrally by a third-party independent rater blinded to protocol, visit, and treatment.
Hamilton Depression Rating Scale-6 Item (HAM-D6): The HAM-D6 is a clinician-administered scale used to assess key domains of depressive symptomatology. The HAM-D6 was derived from the original 17-item version of the scale (HAM-D17). Five of the six items are scored on a scale of 0 to 4, and one item is scored on a scale of 0 to 2.
Clinical Global Impression-Severity (CGI-S): The CGI-S is a 7-point clinician-administered scale used to assess the severity of the patient's illness at the time of assessment relative to the clinician's past experience with patients who have the same diagnosis.
Inventory of Depressive Symptomatology (30-Item, Self-Rated Version) (IDS-SR30): The IDS-SR30 is a self-rated scale used to assess the severity of depressive symptomatology. The scale includes 30 items, each scored on a scale of 0 to 3.
The MADRS total score was centrally administered. The HAM-D6 was site-administered. The CGI-S was site physician administered. The IDS-SR was patient self-administered. MADRS-6 and MADRS-8 scores were then extrapolated post hoc from the MADRS total scores.
MADRS-10 items include apparent sadness, reported sadness, inner tension, reduced sleep, reduced appetite, concentration difficulties, lassitude, inability to feel, pessimistic thoughts, and suicidal thoughts. MADRS-6 items include apparent sadness, reported sadness, inner tension, lassitude, inability to feel, and pessimistic thoughts. MADRS-8 items include apparent sadness, reported sadness, inner tension, concentration difficulties, lassitude, inability to feel, pessimistic thoughts, and suicidal thoughts. HAM-D6 items include depressed mood, low self-esteem/guilt, work and interests, psychomotor retardation, psychic anxiety, and somatic symptoms.
When determining clinically significant antidepressant effect, it is recommended to use standardized effect size statistics. The correct use of depression rating scales in clinical trials of antidepressants is to indicate the effect size of the specific items of depression and to accept an effect size of 0.40 or higher as being the clinically significant effect. An effect size of ≥0.2 indicates early improvement. An effect size of ≥0.4 indicates a clinical response.

[1] = single 2400 mg vs placebo, 12 h
[2] = single 2400 mg vs placebo, 24 h
[3] = single 2400 mg vs placebo, 24 h, N = 31
[4] = single 2400 mg vs placebo, 24 h, prespecified, N = 31
[5] = single 2400 mg vs placebo, 36 h
[6] = single 2400 mg vs placebo, 48 h
[7] = single 2400 mg vs placebo, 48 h, N = 31
[8] = single 2400 mg vs placebo, 48 h, prespecified, N = 31
[9] = single 2400 mg vs placebo, 72 h
[10] = single 2400 mg vs placebo, 72 h, N = 31
[11] = single 2400 mg vs placebo, 72 h, prespecified, N = 31
[12] = single 2400 mg, 24 hours post dose

`CC(C)(C[C@H](N)C(=O)O)C(F)F` [Compound A, (S)-2-amino-5,5-difluoro-4,4-dimethylpentanoic acid] was tested, and the “duration of numerical benefits on HAM-D6” value (single 2400 mg) was 24 to 72 h, the “onset of efficacy on HAM-D6” value (single 2400 mg) was “as early as two hours post-dose” and the “MADRS items with greater impact than placebo” value (single 2400 mg vs placebo) was “inner tension, concentration, pessimistic thoughts, and inability to feel”. The “Effect size, HAM-D6 for ≤55 years old” value (single 2400 mg vs placebo, 2 h) was 0.8, the “Effect size, HAM-D6 for ≥36 MADRS at baseline” value (single 2400 mg vs placebo, 2 h) was 1.0 and the “Effect size, HAM-D6” value (single 2400 mg vs placebo, 2 h, prespecified, N = 31) was 0.6. For the same molecule, the “Effect size, HAM-D6 for ≤55 years old” value (single 2400 mg vs placebo, 4 h) was 1.0, the “Effect size, HAM-D6 for ≥36 MADRS at baseline” value (single 2400 mg vs placebo, 4 h) was 1.1 and the “Effect size, HAM-D6” value (single 2400 mg vs placebo, 4 h, prespecified, N = 31) was 0.8. The “Effect size, HAM-D6 for ≤55 years old” value (single 2400 mg vs placebo, 8 h) was 1.1, the “Effect size, HAM-D6 for ≥36 MADRS at baseline” value (single 2400 mg vs placebo, 8 h) was 0.8 and the “Effect size, HAM-D6” value (single 2400 mg vs placebo, 8 h, prespecified, N = 31) was 0.7. The “Effect size, HAM-D6 for ≤55 years old” value [1] was 1.3, the “Effect size, HAM-D6 for ≥36 MADRS at baseline” value [1] was 0.9 and the “Effect size, HAM-D6” value (single 2400 mg vs placebo, 12 h, prespecified, N = 31) was 0.8. The “Effect size, CGI-S for ≤55 years old” value [2] was 0.2, the “Effect size, HAM-D6 for ≤55 years old” value [2] was 0.9 and the “Effect size, MADRS Total for ≤55 years old” value [2] was 0.6. The “Effect size, CGI-S for ≥36 MADRS at baseline” value [2] was 0.2, the “Effect size, HAM-D6 for ≥36 MADRS at baseline” value [2] was 0.8 and the “Effect size, MADRS Total for ≥36 MADRS at baseline” value [2] was 0.4. For the same molecule, the “Effect size, IDS-SR Psychomotor Domain” value [3] was 0.8, the “Effect size, MADRS-06 (core)” value [3] was 0.3 and the “Effect size, MADRS-08 (core-plus)” value [3] was 0.3. For the same molecule, the “Effect size, CGI-S Change from baseline” value [4] was -0.1, the “Effect size, HAM-D6” value [4] was 0.5 and the “Effect size, IDS-SR 30 Total Score” value [4] was 0.3. The “Effect size, MADRS Total Score (prelim. primary @24 h)” value [4] was 0.1, the “Effect size, HAM-D6 for ≤55 years old” value [5] was 1.3 and the “Effect size, HAM-D6 for ≥36 MADRS at baseline” value [5] was 0.9. For the same molecule, the “Effect size, HAM-D6” value (single 2400 mg vs placebo, 36 h, prespecified, N = 31) was 0.5, the “Effect size, CGI-S for ≤55 years old” value [6] was 0.4 and the “Effect size, HAM-D6 for ≤55 years old” value [6] was 1.2. For the same molecule, the “Effect size, MADRS Total for ≤55 years old” value [6] was 0.6, the “Effect size, CGI-S for ≥36 MADRS at baseline” value [6] was 0.7 and the “Effect size, HAM-D6 for ≥36 MADRS at baseline” value [6] was 0.9. The “Effect size, MADRS Total for ≥36 MADRS at baseline” value [6] was 0.3, the “Effect size, IDS-SR Psychomotor Domain” value [7] was 0.3 and the “Effect size, MADRS-06 (core)” value [7] was 0.3. The “Effect size, MADRS-08 (core-plus)” value [7] was 0.3, the “Effect size, CGI-S Change from baseline” value [8] was 0.1 and the “Effect size, HAM-D6” value [8] was 0.5. For the same molecule, the “Effect size, IDS-SR 30 Total Score” value [8] was 0.3, the “Effect size, MADRS Total Score” value [8] was 0.2 and the “Effect size, CGI-S for ≤55 years old” value [9] was 0.2. For the same molecule, the “Effect size, HAM-D6 for ≤55 years old” value [9] was 1.1, the “Effect size, MADRS Total for ≤55 years old” value [9] was 0.3 and the “Effect size, CGI-S for ≥36 MADRS at baseline” value [9] was 1.0. For the same molecule, the “Effect size, HAM-D6 for ≥36 MADRS at baseline” value [9] was 0.8, the “Effect size, MADRS Total for ≥36 MADRS at baseline” value [9] was 0.3 and the “Effect size, IDS-SR Psychomotor Domain” value [10] was 0.6. For the same molecule, the “Effect size, MADRS-06 (core)” value [10] was 0.1, the “Effect size, MADRS-08 (core-plus)” value [10] was 0.1 and the “Effect size, CGI-S Change from baseline” value [11] was 0.2. The “Effect size, HAM-D6” value [11] was 0.4, the “Effect size, IDS-SR 30 Total Score” value [11] was 0.3 and the “Effect size, MADRS Total Score” value [11] was -0.1. The MADRS concentration scores [12] was “marked improvement”, the “MADRS item Apparent Sadness, % CFB” value [12] was −12.3% and the “MADRS item Apparent Sadness, CFB” value [12] was −0.56. The “MADRS item Apparent Sadness, score Day 1” value [12] was 4.00, the “MADRS item Concentration, % CFB” value [12] was −23.1% and the “MADRS item Concentration, CFB” value [12] was −0.94. For the same molecule, the “MADRS item Concentration, score Day 1” value [12] was 3.13, the “MADRS item Inability to Feel, % CFB” value [12] was −12.9% and the “MADRS item Inability to Feel, CFB” value [12] was −0.56. For the same molecule, the “MADRS item Inability to Feel, score Day 1” value [12] was 3.81, the “MADRS item Inner Tension, % CFB” value [12] was −40.5% and the “MADRS item Inner Tension, CFB” value [12] was −1.06. For the same molecule, the “MADRS item Inner Tension, score Day 1” value [12] was 1.56, the “MADRS item Lassitude, % CFB” value [12] was −1.8% and the “MADRS item Lassitude, CFB” value [12] was −0.06. For the same molecule, the “MADRS item Lassitude, score Day 1” value [12] was 3.44, the “MADRS item Pessimistic Thoughts, % CFB” value [12] was −23.3% and the “MADRS item Pessimistic Thoughts, CFB” value [12] was −0.63. For the same molecule, the “MADRS item Pessimistic Thoughts, score Day 1” value [12] was 2.06, the “MADRS item Reduced Appetite, % CFB” value [12] was −14.3% and the “MADRS item Reduced Appetite, CFB” value [12] was −0.44. For the same molecule, the “MADRS item Reduced Appetite, score Day 1” value [12] was 2.63, the “MADRS item Reduced Sleep, % CFB” value [12] was −7.4% and the “MADRS item Reduced Sleep, CFB” value [12] was −0.31. The “MADRS item Reduced Sleep, score Day 1” value [12] was 3.94, the “MADRS item Reported Sadness, % CFB” value [12] was −19.2% and the “MADRS item Reported Sadness, CFB” value [12] was −0.94. The “MADRS item Reported Sadness, score Day 1” value [12] was 3.94, the “MADRS item Suicidal Thoughts, % CFB” value [12] was −9.1% and the “MADRS item Suicidal Thoughts, CFB” value [12] was −0.06. The “MADRS item Suicidal Thoughts, score Day 1” value [12] was 0.63, the “MADRS-10 TOTAL SCORE, CFB” value [12] was −5.5 and the “Change in HAM-D6 Total Score” value (single 2400 mg, at 2 h) was −2.0. For the same molecule, the “Change in HAM-D6 Total Score, Difference Compound A vs Placebo” value (from here on “Change … Difference Compound A vs Placebo”) (single 2400 mg, at 2 h) was −1.3, the “Change in HAM-D6 Total Score” value (single 2400 mg, at 4 h) was −2.6 and the “Change … Difference Compound A vs Placebo” value (single 2400 mg, at 4 h) was −1.8. For the same molecule, the “Change in HAM-D6 Total Score” value (single 2400 mg, at 8 h) was −2.9, the “Change … Difference Compound A vs Placebo” value (single 2400 mg, at 8 h) was −1.7 and the “Change in HAM-D6 Total Score” value (single 2400 mg, at 12 h) was −3.9. For the same molecule, the “Change … Difference Compound A vs Placebo” value (single 2400 mg, at 12 h) was −2.7, the “Change in HAM-D6 Total Score” value (single 2400 mg, at 24 h) was −3.5 and the “Change … Difference Compound A vs Placebo” value (single 2400 mg, at 24 h) was −1.5. The “Change in HAM-D6 Total Score” value (single 2400 mg, at 36 h) was −4.3, the “Change … Difference Compound A vs Placebo” value (single 2400 mg, at 36 h) was −1.8 and the “Change in HAM-D6 Total Score” value (single 2400 mg, at 48 h) was −3.7. For the same molecule, the “Change … Difference Compound A vs Placebo” value (single 2400 mg, at 48 h) was −1.3, the “Change in HAM-D6 Total Score” value (single 2400 mg, at 72 h) was −4.1 and the “Change … Difference Compound A vs Placebo” value (single 2400 mg, at 72 h) was −1.3. The HAM-D6 scores (single dose 2400 mg, FIG. 2) was “rapid and sustained efficacy”.
